ChEMBL document CHEMBL4680133, “Novel nitroimidazole derivatives evaluated for their trypanocidal, cytotoxic, and genotoxic activities” (Eur J Med Chem, 2020)

What was measured:
[1] = Toxicity in Salmonella typhimurium TA97 at 100 ug/plate measured after 20 mins in absence of S9 fraction by colony counting method; settings: salmonella enterica subsp. enterica serovar typhimurium, dose 100 µg
HepG2 [2] = experiment: Genotoxicity in human HepG2 assessed as mitotic index at 2135 uM measured after 24 hrs by micronucleus test (reference value: 61 to 108); assay type: toxicity, cell-based; settings: hepg2, 24 h
RAW264.7 [3] = experiment: Genotoxicity in mouse RAW264.7 cells assessed as number of micronucleated cells at 2135 uM measured after 24 hrs by micronucleus test (reference value: 12 to 15); assay type: toxicity, cell-based; settings: raw264.7, 24 h
RAW264.7 [4] = experiment: Genotoxicity in mouse RAW264.7 cells assessed as number of micronucleated cells at 4270 uM measured after 24 hrs by micronucleus test (reference value: 12 to 15); assay type: toxicity, cell-based; settings: raw264.7, 24 h
[5] = Genotoxicity in human HepG2 assessed as survival at 4270 uM measured after 24 hrs by micronucleus test (reference value: 100%); assay type: toxicity, cell-based; settings: HepG2 cells, read-out: Survival
[6] = Genotoxicity in mouse RAW264.7 cells assessed as survival at 213 uM measured after 24 hrs by micronucleus test (reference value: 100%); assay type: toxicity, cell-based; settings: read-out: Survival
HepG2 [7] = experiment: Genotoxicity in human HepG2 assessed as number of micronucleated cells at 2135 uM measured after 24 hrs by micronucleus test (reference value: 14 to 18); assay type: toxicity, cell-based; settings: hepg2, 24 h
HepG2 [8] = experiment: Genotoxicity in human HepG2 assessed as number of micronucleated cells at 427 uM measured after 24 hrs by micronucleus test (reference value: 14 to 18); assay type: toxicity, cell-based; settings: hepg2, 24 h
HepG2 [9] = experiment: Genotoxicity in human HepG2 assessed as mitotic index at 4270 uM measured after 24 hrs by micronucleus test (reference value: 61 to 108); assay type: toxicity, cell-based; settings: hepg2, 24 h
[10] = Genotoxicity in human HepG2 assessed as survival at 2135 uM measured after 24 hrs by micronucleus test (reference value: 100%); assay type: toxicity, cell-based; settings: HepG2 cells, read-out: Survival
HepG2 [11] = experiment: Genotoxicity in human HepG2 assessed as mitotic index at 427 uM measured after 24 hrs by micronucleus test (reference value: 61 to 108); assay type: toxicity, cell-based; settings: hepg2, 24 h
[12] = Genotoxicity in mouse RAW264.7 cells assessed as survival at 2135 uM measured after 24 hrs by micronucleus test (reference value: 100%); assay type: toxicity, cell-based; settings: read-out: Survival
RAW264.7 [13] = experiment: Genotoxicity in mouse RAW264.7 cells assessed as number of micronucleated cells at 427 uM measured after 24 hrs by micronucleus test (reference value: 12 to 15); assay type: toxicity, cell-based; settings: raw264.7, 24 h
HepG2 [14] = experiment: Genotoxicity in human HepG2 assessed as number of micronucleated cells at 4270 uM measured after 24 hrs by micronucleus test (reference value: 14 to 18); assay type: toxicity, cell-based; settings: hepg2, 24 h
RAW264.7 [15] = experiment: Cytotoxicity against mouse RAW264.7 cells at 21.3 to 427 uM measured after 24 hrs by LDH assay; assay type: cell-based; settings: raw264.7, 24 h, dose 21.3-427 µM
RAW264.7 [16] = experiment: Genotoxicity in mouse RAW264.7 cells assessed as mitotic index at 350 uM measured after 24 hrs by micronucleus test (reference value: 40 to 249); assay type: toxicity, cell-based; settings: raw264.7, 24 h
[17] = Genotoxicity in human HepG2 assessed as survival at 350 uM measured after 24 hrs by micronucleus test (reference value: 100%); assay type: toxicity, cell-based; settings: HepG2 cells, read-out: Survival
HepG2 [18] = experiment: Genotoxicity in human HepG2 assessed as number of micronucleated cells at 1750 uM measured after 24 hrs by micronucleus test (reference value: 14 to 18); assay type: toxicity, cell-based; settings: hepg2, 24 h
HepG2 [19] = experiment: Genotoxicity in human HepG2 assessed as mitotic index at 175 uM measured after 24 hrs by micronucleus test (reference value: 61 to 108); assay type: toxicity, cell-based; settings: hepg2, 24 h
RAW264.7 [20] = experiment: Genotoxicity in mouse RAW264.7 cells assessed as number of micronucleated cells at 1750 uM measured after 24 hrs by micronucleus test (reference value: 12 to 15); assay type: toxicity, cell-based; settings: raw264.7, 24 h
RAW264.7 [21] = experiment: Genotoxicity in mouse RAW264.7 cells assessed as number of micronucleated cells at 350 uM measured after 24 hrs by micronucleus test (reference value: 12 to 15); assay type: toxicity, cell-based; settings: raw264.7, 24 h
HepG2 [22] = experiment: Genotoxicity in human HepG2 assessed as mitotic index at 1750 uM measured after 24 hrs by micronucleus test (reference value: 61 to 108); assay type: toxicity, cell-based; settings: hepg2, 24 h
RAW264.7 [23] = experiment: Genotoxicity in mouse RAW264.7 cells assessed as mitotic index at 175 uM measured after 24 hrs by micronucleus test (reference value: 40 to 249); assay type: toxicity, cell-based; settings: raw264.7, 24 h
HepG2 [24] = experiment: Cytotoxicity against human HepG2 cells assessed as induction of membrane damage at 17.5 to 350 uM measured after 24 hrs by LDH assay; assay type: cell-based; settings: hepg2, 24 h, dose 17.5-350 µM
[25] = Genotoxicity in mouse RAW264.7 cells assessed as survival at 3500 uM measured after 24 hrs by micronucleus test (reference value: 100%); assay type: toxicity, cell-based; settings: read-out: Survival
HepG2 [26] = experiment: Genotoxicity in human HepG2 assessed as number of micronucleated cells at 175 uM measured after 24 hrs by micronucleus test (reference value: 14 to 18); assay type: toxicity, cell-based; settings: hepg2, 24 h
HepG2 [27] = experiment: Genotoxicity in human HepG2 assessed as mitotic index at 350 uM measured after 24 hrs by micronucleus test (reference value: 61 to 108); assay type: toxicity, cell-based; settings: hepg2, 24 h
[28] = Genotoxicity in mouse RAW264.7 cells assessed as survival at 175 uM measured after 24 hrs by micronucleus test (reference value: 100%); assay type: toxicity, cell-based; settings: read-out: Survival
RAW264.7 [29] = experiment: Genotoxicity in mouse RAW264.7 cells assessed as mitotic index at 1750 uM measured after 24 hrs by micronucleus test (reference value: 40 to 249); assay type: toxicity, cell-based; settings: raw264.7, 24 h
RAW264.7 [30] = experiment: Genotoxicity in mouse RAW264.7 cells assessed as number of micronucleated cells at 3500 uM measured after 24 hrs by micronucleus test (reference value: 12 to 15); assay type: toxicity, cell-based; settings: raw264.7, 24 h
HepG2 [31] = experiment: Genotoxicity in human HepG2 assessed as number of micronucleated cells at 3500 uM measured after 24 hrs by micronucleus test (reference value: 14 to 18); assay type: toxicity, cell-based; settings: hepg2, 24 h
RAW264.7 [32] = experiment: Cytotoxicity against mouse RAW264.7 cells assessed as induction of membrane damage at 17.5 to 350 uM measured after 24 hrs by LDH assay; assay type: cell-based; settings: raw264.7, 24 h, dose 17.5-350 µM
RAW264.7 [33] = experiment: Genotoxicity in mouse RAW264.7 cells assessed as number of micronucleated cells at 175 uM measured after 24 hrs by micronucleus test (reference value: 12 to 15); assay type: toxicity, cell-based; settings: raw264.7, 24 h
[34] = Genotoxicity in human HepG2 assessed as survival at 3500 uM measured after 24 hrs by micronucleus test (reference value: 100%); assay type: toxicity, cell-based; settings: HepG2 cells, read-out: Survival
[35] = Genotoxicity in human HepG2 assessed as survival at 175 uM measured after 24 hrs by micronucleus test (reference value: 100%); assay type: toxicity, cell-based; settings: HepG2 cells, read-out: Survival
[36] = Toxicity in Salmonella typhimurium TA102 at 100 ug/plate measured after 20 mins in absence of S9 fraction by colony counting method; settings: salmonella enterica subsp. enterica serovar typhimurium, dose 100 µg
HepG2 [37] = experiment: Genotoxicity in human HepG2 assessed as number of micronucleated cells at 350 uM measured after 24 hrs by micronucleus test (reference value: 14 to 18); assay type: toxicity, cell-based; settings: hepg2, 24 h
[38] = Genotoxicity in human HepG2 assessed as survival at 1750 uM measured after 24 hrs by micronucleus test (reference value: 100%); assay type: toxicity, cell-based; settings: HepG2 cells, read-out: Survival

Cn1cnc([N+](=O)[O-])c1-n1cc(C2CC2)nn1
Activity [1]: Toxic | Activity_index (HepG2 [2]): 101 | Activity (RAW264.7 [3]): 19 | Activity (RAW264.7 [4]): 20 | viability at 24 h, 4270 µM [5]: 91% | viability at 24 h, 213 µM [6]: 99% | Activity (HepG2 [7]): 19 | Activity (HepG2 [8]): 17 | Activity_index (HepG2 [9]): 124 | viability at 24 h, 2135 µM [10]: 95% | Activity_index (HepG2 [11]): 106 | viability at 24 h, 2135 µM [12]: 96% | Activity (RAW264.7 [13]): 11 | Activity (HepG2 [14]): 27 | Activity (RAW264.7 [15]): Non-Toxic

CCCCCc1ccc(-c2cn(-c3c([N+](=O)[O-])ncn3C)nn2)cc1
Activity_index (RAW264.7 [16]): 223 | viability at 24 h, 350 µM [17]: 95% | Activity (HepG2 [18]): 35 | Activity_index (HepG2 [19]): 111 | Activity (RAW264.7 [20]): 23 | Activity (RAW264.7 [21]): 13 | Activity_index (HepG2 [22]): 59 | Activity_index (RAW264.7 [23]): 245 | Activity (HepG2 [24]): Toxic | viability at 24 h, 3500 µM [25]: 71% | Activity (HepG2 [26]): 14 | Activity_index (HepG2 [27]): 91 | viability at 24 h, 175 µM [28]: 99% | Activity_index (RAW264.7 [29]): 166 | Activity (RAW264.7 [30]): 39 | Activity (HepG2 [31]): 42 | Activity (RAW264.7 [32]): Toxic | Activity (RAW264.7 [33]): 11 | viability at 24 h, 3500 µM [34]: 64% | viability at 24 h, 175 µM [35]: 99% | Activity [36]: Toxic | Activity (HepG2 [37]): 25 | viability at 24 h, 1750 µM [38]: 80%
